The target of assay [1] is T1, EV D68 3C protease (Enterovirus D68, UniProt A1E4A3).
T1 sequence (A1E4A3 1549-1731): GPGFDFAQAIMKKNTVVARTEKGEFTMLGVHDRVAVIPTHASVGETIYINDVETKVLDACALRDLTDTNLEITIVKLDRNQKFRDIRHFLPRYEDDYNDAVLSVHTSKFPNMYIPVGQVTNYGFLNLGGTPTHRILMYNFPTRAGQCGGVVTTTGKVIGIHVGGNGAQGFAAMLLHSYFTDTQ
The assay is described as follows: Tryptic digest and MS of protein-inhibitor complex. As to conditions: trypsin digest of protein-inhibitor complex. The assay is classed as binding.

Assay [2] has as its target T1, EV D68 3C protease. Description: Fragment ligation screening / FRET assay of fragments and aldehyde 1. The assay is classed as biochemical. As to conditions: fragment 19 μM + aldehyde 1 19 μM, 2 h incubation, p<0.05.

These results are taken from PMC8252737 (Angewandte Chemie (International Ed. in English), 2021).

Take `CCOC(=O)C=Cc1cccc(C(N)=O)c1` [Compound 13, O‐ethyl 3‐carbamoyl‐cinnamoyl ester]: the “Alkylation of the 13mer peptide containing Cys147” value in assay [1] is listed as “complete alkylation”.

`CCOC(=O)CC#N` [Compound F1, O‐ethyl 2‐cyano‐acetate]: the “Inhibition of the protease in combination with aldehyde 1 compared to the aldehyde alone” value in assay [2] is “significantly increased inhibition”.

Consider `CC(=O)CC#N` [Compound F4, 3‐oxo‐butane nitrile], for which the “Inhibition of the protease in combination with aldehyde 1 compared to the aldehyde alone” value in assay [2] is given as “significantly increased inhibition”.
